Data reported in ChEMBL document CHEMBL1142215, “Site-specific reduction of oxidative and lipid metabolism in adipose tissue of 3'-azido-3'-deoxythymidine-treated rats” (2007).
Activity calls are given as the source filed them. The rule behind the calls is not given here.

Experiments:
[1] = system: Rattus norvegicus; experiment: Increase in AMPK phosphorylation level in rat inguinal adipose cells at 70 mg/kg/day; format: organism-based
[2] = system: Rattus norvegicus; experiment: Increase in triglyceride level in cafteria-fed Wistar rat at 70 mg/kg/day relative to control; format: functional
[3] = target: Fatty acid synthase (Rattus norvegicus) (UniProt P12785); experiment: Decrease in fatty acid synthase activity in Wistar cafteria-fed rat epididymal adipose tissue at 70 mg/kg/day by DNA quantification assay; format: organism-based
Fatty acid synthase (Rattus norvegicus), sequence (P12785 whole entry): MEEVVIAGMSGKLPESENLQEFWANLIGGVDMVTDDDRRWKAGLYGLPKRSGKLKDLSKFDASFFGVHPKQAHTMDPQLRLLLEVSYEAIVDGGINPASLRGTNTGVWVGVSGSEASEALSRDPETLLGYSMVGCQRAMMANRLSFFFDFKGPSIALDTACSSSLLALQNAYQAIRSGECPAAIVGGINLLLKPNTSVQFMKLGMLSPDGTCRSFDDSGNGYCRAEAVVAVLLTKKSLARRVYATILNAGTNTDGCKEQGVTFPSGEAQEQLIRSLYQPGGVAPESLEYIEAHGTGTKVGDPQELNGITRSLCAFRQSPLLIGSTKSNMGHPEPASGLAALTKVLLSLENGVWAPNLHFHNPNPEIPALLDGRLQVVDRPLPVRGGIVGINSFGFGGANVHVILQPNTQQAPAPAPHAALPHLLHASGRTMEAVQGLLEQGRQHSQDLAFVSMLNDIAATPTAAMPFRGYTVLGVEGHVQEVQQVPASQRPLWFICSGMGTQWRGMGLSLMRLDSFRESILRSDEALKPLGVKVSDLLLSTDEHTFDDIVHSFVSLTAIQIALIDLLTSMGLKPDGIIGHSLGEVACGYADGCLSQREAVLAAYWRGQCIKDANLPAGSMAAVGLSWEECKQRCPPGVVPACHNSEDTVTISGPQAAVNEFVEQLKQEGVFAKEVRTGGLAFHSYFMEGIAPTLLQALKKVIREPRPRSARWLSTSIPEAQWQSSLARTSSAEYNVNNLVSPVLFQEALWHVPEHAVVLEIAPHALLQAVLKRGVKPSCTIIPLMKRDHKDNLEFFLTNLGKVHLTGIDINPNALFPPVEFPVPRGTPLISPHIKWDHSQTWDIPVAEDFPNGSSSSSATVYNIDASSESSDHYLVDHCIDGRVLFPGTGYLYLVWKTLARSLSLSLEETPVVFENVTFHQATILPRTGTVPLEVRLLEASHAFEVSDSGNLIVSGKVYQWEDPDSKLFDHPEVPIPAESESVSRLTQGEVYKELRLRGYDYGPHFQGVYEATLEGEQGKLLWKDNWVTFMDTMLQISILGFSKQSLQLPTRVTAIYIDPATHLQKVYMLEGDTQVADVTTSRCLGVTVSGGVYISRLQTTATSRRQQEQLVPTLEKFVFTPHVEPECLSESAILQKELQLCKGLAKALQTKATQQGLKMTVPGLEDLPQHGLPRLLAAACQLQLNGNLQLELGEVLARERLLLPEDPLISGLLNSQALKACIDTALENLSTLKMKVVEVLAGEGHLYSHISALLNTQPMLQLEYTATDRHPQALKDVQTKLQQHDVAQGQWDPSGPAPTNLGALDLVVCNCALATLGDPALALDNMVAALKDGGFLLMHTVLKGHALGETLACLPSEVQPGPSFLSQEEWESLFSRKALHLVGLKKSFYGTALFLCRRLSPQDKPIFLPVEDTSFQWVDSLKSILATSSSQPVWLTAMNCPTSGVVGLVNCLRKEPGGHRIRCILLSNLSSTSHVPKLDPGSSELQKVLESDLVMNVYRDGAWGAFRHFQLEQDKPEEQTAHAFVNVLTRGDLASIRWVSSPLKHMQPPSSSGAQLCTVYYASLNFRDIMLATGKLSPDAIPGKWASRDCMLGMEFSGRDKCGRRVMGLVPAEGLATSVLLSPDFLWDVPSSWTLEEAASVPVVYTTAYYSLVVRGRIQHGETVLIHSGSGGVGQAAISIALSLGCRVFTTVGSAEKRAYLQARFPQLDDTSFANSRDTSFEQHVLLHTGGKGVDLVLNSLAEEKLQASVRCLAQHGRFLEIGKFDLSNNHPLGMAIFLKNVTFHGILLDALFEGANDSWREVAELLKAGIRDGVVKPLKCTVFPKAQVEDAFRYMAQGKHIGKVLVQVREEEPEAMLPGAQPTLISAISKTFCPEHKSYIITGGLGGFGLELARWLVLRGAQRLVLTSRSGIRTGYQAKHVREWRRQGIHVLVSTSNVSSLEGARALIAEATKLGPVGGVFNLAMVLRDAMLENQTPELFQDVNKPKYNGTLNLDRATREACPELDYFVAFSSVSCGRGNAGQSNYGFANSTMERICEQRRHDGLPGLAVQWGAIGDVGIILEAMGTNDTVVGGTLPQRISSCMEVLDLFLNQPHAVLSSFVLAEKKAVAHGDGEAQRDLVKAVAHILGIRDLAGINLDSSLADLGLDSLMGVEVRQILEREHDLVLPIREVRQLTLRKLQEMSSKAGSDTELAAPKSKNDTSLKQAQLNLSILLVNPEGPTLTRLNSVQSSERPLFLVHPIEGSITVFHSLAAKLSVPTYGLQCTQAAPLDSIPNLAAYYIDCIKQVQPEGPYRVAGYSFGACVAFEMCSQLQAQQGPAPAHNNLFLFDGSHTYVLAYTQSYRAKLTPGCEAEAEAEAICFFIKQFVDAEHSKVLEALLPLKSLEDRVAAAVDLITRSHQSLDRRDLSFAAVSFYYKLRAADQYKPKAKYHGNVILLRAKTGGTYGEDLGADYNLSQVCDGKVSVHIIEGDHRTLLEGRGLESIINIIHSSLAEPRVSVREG

[4] = system: Rattus norvegicus; experiment: Increase in cellularity in cafteria-fed Wistar rat inguinal tissue assessed as DNA content at 70 mg/kg/day; format: functional
[5] = system: Rattus norvegicus; experiment: Decrease in cytochrome c oxidase activity in lean Wistar rat inguinal adipose tissue at 70 mg/kg/day by DNA quantification assay; format: organism-based
[6] = system: Rattus norvegicus; experiment: Effect on AMPK phosphorylation level in rat epididymal adipose cell at 70 mg/kg/day; format: organism-based
[7] = system: Rattus norvegicus; experiment: Effect on LDL cholesterol level in cafteria-fed Wistar rat at 70 mg/kg/day relative to control; format: functional
[8] = system: Rattus norvegicus; experiment: Effect on HDL cholesterol level in cafteria-fed Wistar rat at 70 mg/kg/day relative to control; format: functional
[9] = system: Rattus norvegicus; experiment: Decrease in cytochrome c oxidase activity in cafteria-fed Wistar rat inguinal adipose tissue at 70 mg/kg/day by DNA quantification assay; format: organism-based
[10] = system: Rattus norvegicus; experiment: Increase in body weight in lean Wistar rat at 70 mg/kg/day after 4 weeks; format: functional
[11] = system: Rattus norvegicus; experiment: Increase in triglyceride level in lean Wistar rat at 70 mg/kg/day relative to control; format: functional
[12] = target: Fatty acid synthase (Rattus norvegicus) (UniProt P12785); experiment: Decrease in fatty acid synthase activity in Wistar cafteria-fed rat inguinal adipose tissue at 70 mg/kg/day by DNA quantification assay; format: organism-based
[13] = system: Rattus norvegicus; experiment: Decrease in epididymal adipocyte size in cafteria-fed Wistar rat at 70 mg/kg/day; format: functional, organism-based
[14] = system: Rattus norvegicus; experiment: Effect on LDL cholesterol level in lean Wistar rat at 70 mg/kg/day relative to control; format: functional
[15] = system: Rattus norvegicus; experiment: Effect on HDL cholesterol level in lean Wistar rat at 70 mg/kg/day relative to control; format: functional
[16] = system: Rattus norvegicus; experiment: Increase in body weight in cafteria-fed Wistar rat at 70 mg/kg/day after 4 weeks; format: functional
[17] = target: Fatty acid synthase (Rattus norvegicus) (UniProt P12785); experiment: Decrease in fatty acid synthase activity in lean Wistar rat epididymal adipose tissue assessed at 70 mg/kg/day by DNA quantification assay; format: organism-based
[18] = target: Fatty acid synthase (Rattus norvegicus) (UniProt P12785); experiment: Decrease in fatty acid synthase activity in lean Wistar rat inguinal adipose tissue assessed at 70 mg/kg/day by DNA quantification assay; format: organism-based
[19] = system: Rattus norvegicus; experiment: Decrease in inguinal adipocyte size in cafteria-fed Wistar rat at 70 mg/kg/day; format: functional

- Activity [3]: inactive
- Activity [12]: 0.55 U/mg
- Activity [17]: inactive
- Activity [18]: 0.72 U/mg
SMILES: Cc1cn([C@H]2C[C@H](N=[N+]=[N-])[C@@H](CO)O2)c(=O)[nH]c1=O [ZIDOVUDINE]
- Activity [1]: Active
- Activity [2]: 1.96 mM
- Activity [4]: 625 µg
- Activity [5]: 6.61 U/mg
- Activity [6]: Active
- Activity [7]: 0.6 mM
- Activity [8]: 0.32 mM
- Activity [9]: 6.43 U/mg
- Activity [10]: 401 g
- Activity [11]: 2.11 mM
- Activity [13]: inactive
- Activity [14]: 0.27 mM
- Activity [15]: 0.43 mM
- Activity [16]: 443 g
- Activity [19]: 2082 um2
